For one data set, the system named is HDAC. Nature of the data set: Histone deacetylase (HDAC) assay in SMC lysates with [3H]-acetylated histone H4 peptide. The class given is biochemical, human. How it is done:
HITC6 SMC's were stably transduced with pQXCIP-PURO or pQXCIP-PBEF-PURO and HDAC activity determined in cell lysates (25 μg of protein), using [^3H]histone H4 peptide as the substrate. The reactions were quenched by acid hydrolysis and catalytically released [^3H]-acetate was extracted in ethyl acetate.
Histone Deacetylase (HDAC) Assays were employed. Histone H4 peptide (Upstate) was labeled with [^3H]-acetyl Coenzyme A (ICN) using PCAF histone acetylase. Cell lysates were harvested using Passive Lysis Buffer (Promega) and 25 μg of protein was incubated at 37° C. for 6 hours with 50,000 cpm of [^3H]-acetyl histone and 1 mM PMSF in HDAC Assay Buffer (Upstate). Released [^3H]-acetate was extracted with ethyl acetate (31) and counted on a Beckman LS3801 scintillation counter.

For the next data set, the system named is PBEF. Description: Knockdown of PBEF by RNA interference: PBEF mRNA (real-time RT-PCR) and protein (Western blot). The class given is cell-based, human. The settings on record: HITC6 SMCs, retroviral hairpin siRNA. The protocol: (§1) Western Blot Analyses were employed to assay marker expression. Expression of PBEF and SMC differentiation markers was assessed by Western blot analysis with chemiluminescence detection, as described (29). Equal amounts of protein were resolved on 12% (for PBEF and α-tubulin), 9% (for smoothelin A and smoothelin B) and 6% (for caldesmon and vinculin-metavinculin) SDS-polyacrylamide gels and transferred PVDF membranes (Immobilon, Millipore). PBEF was detected using a polyclonal rabbit antibody against human PBEF (1857, 1:5000, kindly provided by Amgen). Monoclonal antibodies were used to detect heavy (h)-caldesmon (clone hHCD, 1:1000, Sigma), smoothelin isoforms A and B (clone MAB3242, 1:500, Chemicon), vinculin-metavinculin (clone VIN-11-5, 1:2000, Sigma), and α-tubulin (clone B-5-1-2; 1:16000, Sigma).
(§2) Knockdown of PBEF by RNA Interference was evaluated with a viral vector. PBEF knockdown was accomplished by infecting human SMC's with retrovirus containing sequences encoding hairpin siRNA fragments. Complementary oligodeoxynucleotides were synthesized, annealed, and inserted between the BamH1 and EcoR1 sites of the retroviral expression vector pSIREN-RetroQ. Three different targeting sequences were used, each consisting of 19 nucleotides starting at nucleotides 147, 384, and […] of the PBEF coding sequence (siRNA147 5′-GGAAGGTGAAATATGAGGA-3′; siRNA384 5′-ATGTTCTCTTCACGGTGGA-3′; siRNA1278 5′-AGGGCCGATTATCTTTACA-3′). Each sequence was separated by a 9-nucleotide noncomplementary spacer from the reverse complement of the same 19-nucleotide sequence. Blast search confirmed that only the PBEF gene was targeted. Control inserts contained the gene-specific 19-nucleotide sequence and hairpin loop sequence but not the antisense component. Infection of SMCs was performed as described above and cells were selected using 3 μg/ml puromycin for 48 hours.
Real-time RT-PCR was used to analyze nucleic acid evidence. RNA was harvested using RNeasy mini-column and reagents (Qiagen) and subjected to DNaseI treatment. Probe (5′-CAGTTGCTGATCCCA-3′) and flanking primers (5′-primer 5′-[…]-3′; 3′-primer 5′-[…]-3′) for Taqman real-time RT-PCR for PBEF were designed using Primer Express software (Applied Biosystems). Reactions were performed using an ABI-Prism 7900 Sequence Detection System (Applied Biosystems). Optimum signal was obtained with concentrations of 200 nM, 300 nM and 50 nM for the probe, 5′ primer, and 3′ primer, respectively. Standard curves were generated using RNA derived from human aortic SMCs, enabling correlation of the determined threshold cycle to transcript abundance. GAPDH transcript abundance was used as an endogenous RNA control (Assays on Demand Hs9999905, Applied Biosystems) to which PBEF transcript abundance was normalized.
(In general: In qPCR the cycle at which signal appears reflects the starting amount.)

The test system of a further data set is HITC6 SMC's. Nature of the data set: Survival, morphology and h-caldesmon expression of PBEF-knockdown SMCs. It is filed as cell-based, human. To be noted: for SMC morphology / SMC survival: retroviral hairpin siRNA. How it is done: as §1, §2
Microscopy and Image Analysis were used to measure cell robustness and function. Cell images were collected using a Zeiss Axiovert S100 microscope (Carl Zeiss Microimaging Inc.) equipped with Hoffman Modulation Contrast Plan objectives and TCT condenser (Modulation Optics Inc.), cooled QICAM 12-bit Mono Fast 1394 camera (QImaging Inc.) and Northern Eclipse image analysis software (Empix Imaging Inc.). Histology images were acquired with an Olympus BX50 microscope with a BX-FLA illuminator, UPlanF1 objective lenses (Olympus Optical Co. Ltd.), cooled Retiga EXi Mono Fast 1394 camera (QImaging Inc.) and Northern Eclipse image analysis software. Linear image processing was done using Photoshop CS (Adobe Systems Inc.).

In data set [1] the test system is HITC6 SMCs. Description: Replicative lifespan (cumulative population doublings) of HITC6 SMCs. It is filed as cell-based, human. The protocol: To quantify replication, cells were plated at 4500 cells/cm^2 and growth medium with 10% FBS was changed every two days until cells reached 90-95% confluence. Harvested cells were counted from triplicate plates and the number of population doublings was calculated based on: [log10(number of cells harvested)−log10(number of cells seeded)]/[…] (Fukuhara, 2005). Population growth curves were compared using both nonlinear regression and two-way analysis of variance.
Cell Culture. Experiments were performed using primary human SMCs and the HITC6 clonal SMC line, both derived from segments of human internal thoracic artery (Li et al., 1999; Li et al., 2001). SMCs were maintained at 37° C. with 5% CO2 and cultured in Medium 199 (Invitrogen, Carlsbad, Calif., USA) supplemented with 25 mM HEPES, 10% FBS, 1% penicillin/streptomycin, and 1% L-glutamine. Phoenix cells (distributed by ATCC, Manassas, Va., USA) were maintained at 37° C. with 5% CO2 and cultured in Dulbecco's modified Eagle's medium (Invitrogen, Carlsbad, Calif., USA). To quantify replication, cells were seeded at a density of 4500 cells/cm2 and population doublings were calculated using the following formula: […].

Data set [2] deals with HITC6 SMCs. Nature of the data set: Senescence-associated beta-galactosidase activity / senescence-free survival. The class given is cell-based, human. To be noted: 37th subculture. The protocol: Senescence-associated β-Galatosidase Activity Assay. SMCs on glass coverslips at approximately 70% confluence were fixed in 2% formaldehyde/0.2% glutaraldehyde in PBS for 3 minutes and incubated with X-gal-containing reaction mixture, as previously described (Dimri, 1995). Washed cells were stained with Hoechst 33258 (2.5 μg/ml) and the proportion of senescence-associated β-galactosidase (SA β-Gal)-positive cells quantified from 10 microscope fields of view (Olympus BX51, ×20 objective, approximately 1200 cells). Senescence-free survival was determined using Kaplan-Meier analysis of survival vs. replicative age.
Senescence-associated Beta-galactosidase Activity. Senescence-associated beta-galactosidase (SA-β-gal) activity was determined as previously described (Dimri et al, 1995). Briefly, SMCs were fixed in PBS containing 2% formaldehyde/0.2% glutaraldehyde for 3 min at room temperature. Fixed cells were then incubated for 4-6 h at 37° C. with SA-β-gal stain solution containing 150 mM NaCl, 2 mM MgCl, 40 mM citrate, 5 mM potassium ferrocyanide, 5 mM potassium ferricyanide, and 1 mg/ml of 5-bromo-4-chloro-3-indolyl-β-D-galactopyranoside (X-gal) (Invitrogen, Carlsbad, Calif., USA), at pH 6.0. SMCs were counterstained with 2.5 μg/ml Hoechst 33258 to detect cell nuclei. The proportion of SA-β-gal activity positive cells was quantified using light and fluorescence microscopy (Olympus BX51, Center Valley, Pa., USA).

The subject of data set [3] is primary human vascular SMCs. Nature of the data set: Replicative lifespan (cumulative population doublings) of primary SMCs. It is filed as cell-based. The settings on record: SIRT1-overexpressing primary adult SMCs; p<0.01.

Consider `CC(NC(=O)c1ccccc1/N=C/c1c(O)ccc2ccccc12)c1ccccc1` (centres unmarked) [Sirtinol, sirtinol], for which, in the data set with HDAC (50 μM sirtinol), the “HDAC activity in PBEF-overexpressing SMC's” value is recorded as “significantly inhibited” and the “HDAC activity in control SMC's” value is “more modest inhibition”.
For “siRNA147: retrovirally expressed hairpin siRNA to PBEF, 19 nt from nucleotide 147: 5'-GGAAGGTGAAATATGAGGA-3' (hairpin with spacer and reverse complement)”, in the data set with PBEF, the “PBEF mRNA (real-time RT-PCR) vs non-silencing RNA control” value is “significant decrease” and the PBEF protein result is on record as “significant suppression”. Further, in the data set on HITC6 SMC's, the SMC morphology entry is “short, truncated morphology” and the SMC survival entry was “survived poorly”.
As for “siRNA384: retrovirally expressed hairpin siRNA to PBEF, 19 nt from nucleotide 384: 5'-ATGTTCTCTTCACGGTGGA-3' (hairpin with spacer and reverse complement)”, in the data set on PBEF, the “PBEF mRNA (real-time RT-PCR) vs non-silencing RNA control” value was “did not manifest a reduction” and the PBEF protein result is on record as “did not manifest a reduction”. Also, the SMC morphology result with HITC6 SMC's is listed as “maintained an elongated morphology”.
Turning to “siRNA1248: retrovirally expressed hairpin siRNA to PBEF, 19 nt from nucleotide 1248: 5'-AGGGCCGATTATCTTTACA-3' (hairpin with spacer and reverse complement)”, in the data set with PBEF, the “PBEF mRNA (real-time RT-PCR) vs non-silencing RNA control” value was “significant decrease” and the PBEF protein entry is given as “significant suppression”. In addition, in the data set on HITC6 SMC's, the “h-caldesmon expression (Western blot)” value is on record as “reduced expression”; the SMC morphology entry is “short, truncated morphology”; the SMC survival result was “survived poorly”.
In the case of trichostatin A, in the data set with HDAC (40 nM trichostatin A), the “HDAC activity in both control and PBEF-overexpressing SMC's” value is reported as “substantially inhibited”.

B1: SIRT1 H363Y: dominant-negative form of SIRT1 (H363Y), retrovirally transduced (protein, UniProt Q96EB6 2-747, looked up, variant H363Y)
NAD-dependent protein …: ADEAALALQPGGSPSAAGADREAASSPAGEPLRKRPRRDGPGLERSPGEPGGAAPEREVPAAARGCPGAAAAALWREAEAEAAAAGGEQEAQATAAAGEGDNGPGLQGPSREPPLADNLYDEDDDDEGEEEEEAAAAAIGYRDNLLFGDEIITNGFHSCESDEEDRASHASSSDWTPRPRIGPYTFVQQHLMIGTDPRTILKDLLPETIPPPELDDMTLWQIVINILSEPPKRKKRKDINTIEDAVKLLQECKKIIVLTGAGVSVSCGIPDFRSRDGIYARLAVDFPDLPDPQAMFDIEYFRKDPRPFFKFAKEIYPGQFQPSLCHKFIALSDKEGKLLRNYTQNIDTLEQVAGIQRIIQCYGSFATASCLICKYKVDCEAVRGDIFNQVVPRCPRCPADEPLAIMKPEIVFFGENLPEQFHRAMKYDKDEVDLLIVIGSSLKVRPVALIPSSIPHEVPQILINREPLPHLHFDVELLGDCDVIINELCHRLGGEYAKLCCNPVKLSEITEKPPRTQKELAYLSELPPTPLHVSEDSSSPERTSPPDSSVIVTLLDQAAKSNDDLDVSESKGCMEEKPQEVQTSRNVESIAEQMENPDLKNVGSSTGEKNERTSVAGTVRKCWPNRVAKEQISRRLDGNQYLFLPPNRYIFHGAEVYSDSEDDVLSSSSCGSNSDSGTCQSPSLEEPMEDESEIEEFYNGLEDEPDVPERAGGAGFGTDGDDQEAINEAISVKQEVTDMNYPSNKS
On to B1, for which the “additional population doublings conferred by Nampt” value in the data set on HITC6 SMCs [1] (SIRT1 H363Y allele co-expressed with Nampt, p=0.003) is recorded as 0.3±0.3 population doublings. For the same molecule, the entries for the “relative increase in senescence” value in the data set on HITC6 SMCs [2] (dominant-negative SIRT1 co-expressed in PBEF-overexpressing SMCs) and in the data set on HITC6 SMCs [2] (vector-infected SMCs expressing SIRT1 H363Y) were 55±12% and 15±10%, respectively.

B2: SIRT1: NAD+-dependent deacetylase; tested by retroviral overexpression of human SIRT1 cDNA in SMCs (protein, UniProt Q96EB6 2-747, looked up)
NAD-dependent protein …: ADEAALALQPGGSPSAAGADREAASSPAGEPLRKRPRRDGPGLERSPGEPGGAAPEREVPAAARGCPGAAAAALWREAEAEAAAAGGEQEAQATAAAGEGDNGPGLQGPSREPPLADNLYDEDDDDEGEEEEEAAAAAIGYRDNLLFGDEIITNGFHSCESDEEDRASHASSSDWTPRPRIGPYTFVQQHLMIGTDPRTILKDLLPETIPPPELDDMTLWQIVINILSEPPKRKKRKDINTIEDAVKLLQECKKIIVLTGAGVSVSCGIPDFRSRDGIYARLAVDFPDLPDPQAMFDIEYFRKDPRPFFKFAKEIYPGQFQPSLCHKFIALSDKEGKLLRNYTQNIDTLEQVAGIQRIIQCHGSFATASCLICKYKVDCEAVRGDIFNQVVPRCPRCPADEPLAIMKPEIVFFGENLPEQFHRAMKYDKDEVDLLIVIGSSLKVRPVALIPSSIPHEVPQILINREPLPHLHFDVELLGDCDVIINELCHRLGGEYAKLCCNPVKLSEITEKPPRTQKELAYLSELPPTPLHVSEDSSSPERTSPPDSSVIVTLLDQAAKSNDDLDVSESKGCMEEKPQEVQTSRNVESIAEQMENPDLKNVGSSTGEKNERTSVAGTVRKCWPNRVAKEQISRRLDGNQYLFLPPNRYIFHGAEVYSDSEDDVLSSSSCGSNSDSGTCQSPSLEEPMEDESEIEEFYNGLEDEPDVPERAGGAGFGTDGDDQEAINEAISVKQEVTDMNYPSNKS
With B2, the “increase in cumulative population doublings vs vector infected SMCs” value in data set [3] is reported as 1.30±0.93 fold. Moreover, the “increase in number of population doublings” value with HITC6 SMCs [1] (SIRT1-SMCs, clonal longer-lived human SMC line, p<0.05) was determined as 1.17±0.03 fold.

The values are drawn from US20080318892A1, “METHODS AND FORMULATIONS FOR PROTECTING CELLS, AND FOR TREATING DISEASES AND CONDITIONS BY OPTIMIZING THE INTRACELLULAR CONCENTRATION OF NAD” (priority 2007, published 2008).
